Assay results reported in patent US20200339625A1, “NOVEL RADIOMETAL-BINDING COMPOUNDS FOR DIAGNOSIS OR TREATMENT OF PROSTATE SPECIFIC MEMBRANE ANTIGEN-EXPRESSING CANCER” (PROVINCIAL HEALTH SERVICES AUTHORITY, priority 2017, published 2020).

Legend:
[1] = tested on: metastatic prostate cancer; details: cited from earlier work
[2] = Radiation dosimetry calculation (OLINDA), 25-g mouse
Protocol: 1.18 Radiation Dosimetry Calculation
(§1) Internal dosimetry estimates were calculated using the organ level internal dose assessment (OLINDA) software v.2.0.^37 These estimates were performed for the mouse using the 25 g MOBY phantom,^38 for humans using the NURBS model for the adult male,^39 and for the tumors using the previously reported unit density sphere model.^40 All the phantoms and the sphere model are available in OLINDA and require the input of the total number of decays normalized by injected activity in units of MBq×h/MBq for each of the source organ/tumor.
The biodistribution data (available in the Tables 1 and 2, below) was used to determine the kinetics input values required by OLINDA. First, each of the values was decayed to its corresponding time point (the values on the table are shown at injection time). Then the different time-points of the uptake data (% ID/g) for each organ were fitted to both mono-exponential
functions using in-house software developed in Python. The best fit was selected based on maximizing the coefficient of determination (R2) of the fit and minimizing the residuals. The areas under the curves were analytically calculated based on the parameters obtained from the best fit of each organ and this provided the kinetic input values required by OLINDA.
In the mouse case, the adrenals, blood, fat, muscle, and seminal vesicles are not modeled in the phantom. These organs were grouped together and included in what OLINDA calls the remainder of the body.

human serum = assay: Plasma protein binding assay; assay type: in vitro ADME; details: for free radioligand: human serum; for filter-bound radioactivity: n=3
Protocol: 1.16 Plasma Protein Binding Assay
Plasma protein binding assays were performed according to literature methods.^19 Briefly, 37 kBq of ^177Lu-PSMA-617 or ^177Lu-HTK01169 in 50 μL PBS was added into 200 μL human serum and the mixture was incubated at room temperature for […]. The mixture was then loaded onto a membrane filter (Nanosep®, 30 K, Pall Corporation, USA) and centrifuged for 45 min (30,130×g). Saline (50 μL) was added and centrifugation was continued for another 15 min. The top part with the membrane filter and the bottom part with the solution were counted on a gamma counter. For control, saline was used in place of human serum.

[3] = tested on: PSMA-expressing PC-3 PIP tumors; details: 5 MBq; cited from earlier work
[4] = Radiation dosimetry calculation (OLINDA), extrapolated to humans (male); set-up: species or system human
Protocol: as §1
Extrapolation of the mice biodistribution data to humans was performed using the method proposed by Kirschner et al.^41 and shown in the following equation: […]
Where morgan is the mass of the organ and M represents the total body mass. The subscripts indicate whether the values correspond to human or mouse. Masses for the organs and total body weight were taken from the simulated masses of the phantoms in OLINDA. […] The % ID/g of the blood was assumed to be the one for the heart contents of the phantom. This value was also used to calculate the bone marrow uptake based on the method described by Wessels et al.^42 in which we assumed a hematocrit fraction of 0.40 based on the patient values shown on that study. At the end, red marrow values used the blood measurements scaled by a factor of 0.32. In the human case, the fat, muscle, and seminal vesicles that are present in the biodistribution data are not modelled in the phantom so the numbers of decays present in these regions were included in the remainder of the body. The data was again fitted as for the mouse case and the values for the total number of decays in units of MBq×h/MBq were inputted in OLINDA.

[5] = source organ Large intestine contents
[6] = source organ Remainder of the body
[7] = source organ Urinary bladder contents
[8] = incubated with saline (control)
[9] = source organ Adrenals, human male
[10] = source organ Cortical bone, human male
[11] = source organ Heart contents, human male
[12] = source organ Heart wall, human male
[13] = source organ Kidneys, human male
[14] = source organ Left colon, human male
[15] = source organ Pancreas, human male
[16] = source organ Rectum, human male
[17] = source organ Red marrow, human male
[18] = source organ Remainder of the body, human male
[19] = source organ Right colon, human
[20] = source organ Small Intestine, human
[21] = source organ Spleen, human male
[22] = source organ Stomach contents, human male
[23] = source organ Testes, human male
[24] = source organ Urinary bladder contents, human male

O=C([O-])CN1CCN(CC(=O)[O-])CCN(CC(=O)NCC2CCC(C(=O)N[C@@H](Cc3ccc4ccccc4c3)C(=O)NCCCC[C@H](NC(=O)N[C@@H](CCC(=O)O)C(=O)O)C(=O)O)CC2)CCN(CC(=O)[O-])CC1.[177Lu+3] (stereo partly drawn) [^177Lu-PSMA-617, reference compound]
complete response rate ([1]; human, in vivo): < 7%
patients with progressive disease after treatment ([1]; human, in vivo): up to 33%
side effects ([1]; human, in vivo): without severe side effects
patients having >50% reduction in PSA levels ([1]; metastatic prostate cancer): 32-60%
objective response ([1]; phase 2 Australian study, patients with measurable nodal or visceral disease): 82%
Kinetics value ([2]; source organ Brain): 6.96E−03 MBq-h/MBq
Kinetics value ([2]; source organ Cortical bone): 9.96E−02 MBq-h/MBq
Kinetics value ([2]; source organ Heart contents): 4.21E−03 MBq-h/MBq
Kinetics value ([2]; source organ Kidneys): 1.13E+00 MBq-h/MBq
Kinetics value [2, 5]: 1.74E−02 MBq-h/MBq
Kinetics value ([2]; source organ Liver): 6.54E−02 MBq-h/MBq
Kinetics value ([2]; source organ Lungs): 5.10E−03 MBq-h/MBq
Kinetics value ([2]; source organ Pancreas): 5.44E−03 MBq-h/MBq
Kinetics value [2, 6]: 6.82E−01 MBq-h/MBq
Kinetics value ([2]; source organ Small intestine): 5.20E−02 MBq-h/MBq
Kinetics value ([2]; source organ Spleen): 1.50E−02 MBq-h/MBq
Kinetics value ([2]; source organ Stomach contents): 5.42E−03 MBq-h/MBq
Kinetics value ([2]; source organ Testes): 4.96E−03 MBq-h/MBq
Kinetics value [2, 7]: 1.10E+00 MBq-h/MBq
free radioligand (human serum): ~17%
filter-bound radioactivity (human serum; incubated with human serum): 82.7±0.32%
filter-bound radioactivity (human serum; [8]): 5.21±1.42%
Median survival [3]: 32 days
Kinetics value [4, 9]: 1.00E−03 MBq-h/MBq
Kinetics value ([4]; source organ Brain, human male): 6.71E−03 MBq-h/MBq
Kinetics value [4, 10]: 5.30E−03 MBq-h/MBq
Kinetics value [4, 11]: 4.29E−03 MBq-h/MBq
Kinetics value [4, 12]: 2.02E−03 MBq-h/MBq
Kinetics value [4, 13]: 3.98E−01 MBq-h/MBq
Kinetics value [4, 14]: 1.53E−03 MBq-h/MBq
Kinetics value ([4]; source organ Liver, human male): 2.32E−02 MBq-h/MBq
Kinetics value ([4]; source organ Lungs, human male): 2.41E−02 MBq-h/MBq
Kinetics value [4, 15]: 8.55E−04 MBq-h/MBq
Kinetics value [4, 16]: 7.16E−04 MBq-h/MBq
Kinetics value [4, 17]: 3.15E−03 MBq-h/MBq
Kinetics value [4, 18]: 5.39E−01 MBq-h/MBq
Kinetics value [4, 19]: 1.53E−03 MBq-h/MBq
Kinetics value [4, 20]: 6.65E−03 MBq-h/MBq
Kinetics value [4, 21]: 6.93E−03 MBq-h/MBq
Kinetics value [4, 22]: 5.06E−03 MBq-h/MBq
Kinetics value [4, 23]: 3.72E−04 MBq-h/MBq
Kinetics value [4, 24]: 3.15E−01 MBq-h/MBq

O=C([O-])CN1CCN(CC(=O)[O-])CCN(CC(=O)NCCCC[C@H](NC(=O)[C@H](CCC(=O)O)NC(=O)CCCc2ccc(I)cc2)C(=O)NC[C@H]2CC[C@H](C(=O)N[C@@H](Cc3ccc4ccccc4c3)C(=O)NCCCC[C@H](NC(=O)N[C@@H](CCC(=O)O)C(=O)O)C(=O)O)CC2)CCN(CC(=O)[O-])CC1.[177Lu+3] [^177Lu-HTK01169]
Kinetics value ([2]; source organ Brain): 3.21E−02 MBq-h/MBq
Kinetics value ([2]; source organ Cortical bone): 5.48E−01 MBq-h/MBq
Kinetics value ([2]; source organ Heart contents): 1.66E−01 MBq-h/MBq
Kinetics value ([2]; source organ Kidneys): 1.94E+01 MBq-h/MBq
Kinetics value [2, 5]: 2.25E−01 MBq-h/MBq
Kinetics value ([2]; source organ Liver): 1.41E+00 MBq-h/MBq
Kinetics value ([2]; source organ Lungs): 1.28E−01 MBq-h/MBq
Kinetics value ([2]; source organ Pancreas): 1.30E−01 MBq-h/MBq
Kinetics value [2, 6]: 1.73E+01 MBq-h/MBq
Kinetics value ([2]; source organ Small intestine): 6.73E−01 MBq-h/MBq
Kinetics value ([2]; source organ Spleen): 4.38E−01 MBq-h/MBq
Kinetics value ([2]; source organ Stomach contents): 1.54E−02 MBq-h/MBq
Kinetics value ([2]; source organ Testes): 1.66E−01 MBq-h/MBq
Kinetics value [2, 7]: 6.02E−01 MBq-h/MBq
free radioligand (human serum): < 1%
filter-bound radioactivity (human serum; incubated with human serum): 99.2±0.02%
filter-bound radioactivity (human serum; [8]): 25.8±3.42%
Kinetics value [4, 9]: 1.55E−02 MBq-h/MBq
Kinetics value ([4]; source organ Brain, human male): 3.42E−02 MBq-h/MBq
Kinetics value [4, 10]: 1.03E−02 MBq-h/MBq
Kinetics value [4, 11]: 3.16E−01 MBq-h/MBq
Kinetics value [4, 12]: 7.97E−02 MBq-h/MBq
Kinetics value [4, 13]: 6.81E+00 MBq-h/MBq
Kinetics value [4, 14]: 1.99E−02 MBq-h/MBq
Kinetics value ([4]; source organ Liver, human male): 4.98E−01 MBq-h/MBq
Kinetics value ([4]; source organ Lungs, human male): 6.03E−01 MBq-h/MBq
Kinetics value [4, 15]: 2.05E−02 MBq-h/MBq
Kinetics value [4, 16]: 9.27E−03 MBq-h/MBq
Kinetics value [4, 17]: 2.46E−01 MBq-h/MBq
Kinetics value [4, 18]: 1.21E+01 MBq-h/MBq
Kinetics value [4, 19]: 1.99E−02 MBq-h/MBq
Kinetics value [4, 20]: 8.61E−02 MBq-h/MBq
Kinetics value [4, 21]: 2.03E−01 MBq-h/MBq
Kinetics value [4, 22]: 1.44E−02 MBq-h/MBq
Kinetics value [4, 23]: 1.25E−02 MBq-h/MBq
Kinetics value [4, 24]: 1.72E−01 MBq-h/MBq
